Test results from patent publication US9248108B2 (Ottawa Hospital Research Institute, priority 2012, dated 2016).
Where two headings read alike, the source gives them in different places. Marks after values point to notes of the source that are not given here.

Columns and labels:
ovarian polyamines = assay: Ovarian polyamine quantification by ion chromatography; format: in vivo, mouse; conditions: older mice, 1% putrescine in drinking water for several days
Procedure: A Dionex ion chromatography system was used to analyze polyamines during ovulation. This system employs an online conductivity detector coupled with an anion suppressor such that only cations are detected. Ovaries were extracted in 5% trichloric acid (TCA) followed by extraction with diethyl ether. The TCA extracts were diluted in water before being applied to the ion chromatography system.
(§1) Polyamines from ovarian samples were determined by ion chromatography (IC) system (Rey and Pohl, 2003. J. Chromatography A 997:199-206). Ovaries were collected immediately after animal sacrifice and stored at −80° C. until use. The samples were thawed and minced, and then 5% trichloroacetic acid (TCA) was added (20 μl/mg). The samples were ultra-sonicated 30 seconds thrice. After centrifugation, the supernatants were extracted twice with diethyl ether. The mouse blood was collected in a tube containing 1 iu/ml heparin (LEO). After centrifugation, the supernatant (plasma) was collected and 10% TCA was added by 1:1 in volume. These plasma samples were extracted twice with diethyl ether, as noted above. The extracts were diluted 10 times in water for polyamine analysis on Dionex Ion ICS-2100 system (Thermo scientific, Dionex, Sunnyvale, Calif., USA) according to the manufacture instructions, using the support software of PeakNet 6.40 SP5 Build 778.

[1] = test system: oocytes of C57BL/6 (8 months) mice
Procedure: GV oocytes isolated from the ovaries of control mice were incubated for 17 h in αMEM. […] Metaphase II eggs following IVM were karyotyped and data expressed. Karyotype analyses were carried out by dual stains (anti-CREST and Sytox green) of metaphase II chromosomes. N: number of interpretable metaphase II karyotypes containing at least 18 dyads or the equivalent (e.g. 17 dyads plus 2 separated sister chromatids). Hypoploid: 18-19 dyads. Euploid: 20 dyads. Hyperploid: 21. PSSC: any karyotypes containing separated sister chromatid(s), with the total of at least 18 dyads or the equivalents. Aneuploid: 2×hyperploid+PSSC. Detailed breakdowns are in Table 14.
Mice were euthanized by cervical dislocation 44-46 h after they were primed with 5 IU equine chorionic gonadotropin (eCG) intraperitonally. […] Ovaries were immediately removed and minced in M2 medium (Sigma; unless otherwise indicated, other chemicals used in this study were also purchased from Sigma) to release oocytes. Oocytes with a clear germinal vesicle (GV) were used for in vitro maturation (IVM) for 17 hours in IVM medium (αMEM medium supplemented with 5% fetal bovine serum and 1 mM L-glutamine) overlaid with mineral oil.
Chromosome spread was carried out according to Hodges and Hunt (Hodges & Hunt, 2002) with minor modifications. In brief, oocytes or 2-cell embryos were collected in M2 medium. The zona pellucida was removed by treatment with 0.5 units/μl pronase at 37° C. for 20 sec. Zona-free oocytes/embryos were rinsed in M2 medium to detach polar bodies. The oocytes/embryos were individually plated onto glass slides (1-10 oocytes/embryos per slide) predipped in the fixative (prepared weekly and stored at 4° C.) containing 1% paraformaldehyde (w/v), 0.15% Triton X-100 (v/v), and 3 mM dithiothreitol, pH 9.2. Slides were kept overnight in moist boxes at room temperature. The slides were then rinsed in 0.5% Kodak Flo (Eastman Kodak Company, Rochester, N.Y.) solution and air-dried. The slides were incubated in 1:200 diluted human anti-centromere serum (Immunovision, Springdale, Ark.) in PBS containing 1% BSA overnight at 4° C., in 1:300 diluted secondary antibody (goat anti-human) conjugated with rhodamine (Jackson ImmunoResearch) in PBS-BSA for 1 h at room temperature, and 0.1% SYTOX green (Invitrogen, Eugene, Oreg.) in PBS for 30 min at room temperature. To avoid bias, the slides were coded by a colleague before being examined by an investigator using epifluorescence microscopy and photographed. Decoding was done after karyotypes were tabulated.

[2] = test system: oocytes of very old (16 months) odc-/+ mice
Source text: Table 12 Summary of two independent experiments. N: total numbers of oocytes in two experiments; GV: oocytes remained in prophase I; MI, no germinal vesicle and no polar body seen (used for spindle examination); PB1, oocytes with first polar body; Fragmented: abnormal cleavage likely due to parthenogenetic activation. * one MI oocyte was lost during handling.

9-month-old CF1 mice = test system: 9-month-old CF1 mice
Source text: Four (4) days later, the female mice are caged individually with fertile males (1:1) overnight. The females were examined in the morning for the presence of a vaginal plug (indicative of mating) and “plugged” females are considered E0 and separated from the males. Mice without a plug were continued mating until a plug was seen, or for up to a total of 4 days (average length of a mouse estrus cycle). Mice were sacrificed on E12 (“unplugged” mice were also sacrificed, taking the next morning following the 4-day-mating as E0) and their uterine horns inspected for normal embryos and dead embryos (resorption).

in vivo = conditions: mouse, plasma
Procedure: as §1

[3] = 1 mM putrescine in drinking water, stated by Penderville H. et al; cited from earlier work
[4] = number of MII eggs, 1% putrescine drinking water one week, IVM with 5 mM putrescine

NCCCCN [Putrescine, putrescine]
levels of ovarian spermidine and spermine (ovarian polyamines): remained unchanged
levels of ovarian putrescine compared to control mice (ovarian polyamines; before or 5 h after hCG): appreciably higher
% Hyperploidy ([1]; 1% putrescine drinking water one week, IVM with 5 mM putrescine): 0%
% Aneuploidy ([1]; Aneuploid: 2×hyperploid+PSSC, 1% putrescine drinking water one week, IVM with 5 mM putrescine): 5.3%
Euploid 20 [1, 4]: 83
Hyperploid 21 [1, 4]: 0
Hyperploid 22 [1, 4]: 0
Hypoploid 19 [1, 4]: 21
PSSC [1, 4]: 6
Hypoploid 18 ([1]; number of MII eggs, 1% putrescine drinking water one week, then 17 h IVM with 5 mM putrescine): 4
Hyperploid ([1]; number of eggs per experiment date (breakdown of Table 13)): 0
number of fully grown GV oocytes in the ovaries ([1]; putrescine in drinking water, n=13): 25.3 /mouse
Normal MI spindle ([2]; normal/examined MI oocytes): 19/20*
dead ([2]; number of oocytes): 1
GV ([2]; number of oocytes remained in prophase I, two experiments): 6
fragmented ([2]; number of oocytes with abnormal cleavage): 0
PB1 ([2]; number of oocytes with first polar body): 2
MI ([2]; number of oocytes, no germinal vesicle and no polar body): 21
Total implants (9-month-old CF1 mice; E12): 300
Total normal fetuses (9-month-old CF1 mice; E12): 282
Total resorption sites (9-month-old CF1 mice; E12): 18
Total normal fetuses/total animals (9-month-old CF1 mice; E12, as fraction): 282/29
Total normal fetuses/total pregnancies (9-month-old CF1 mice; E12, as fraction): 282/24
Total resorption sites/total animals (9-month-old CF1 mice; E12, as fraction): 18/29
Total resorption sites/total implants (9-month-old CF1 mice; E12, as fraction): 18/300
Total resorption sites/total pregnancies (9-month-old CF1 mice; E12, as fraction): 18/24
Total normal fetuses/total animals (9-month-old CF1 mice; E12, quotient): (9.27)
Total normal fetuses/total pregnancies (9-month-old CF1 mice; E12, quotient): (11.75)
Total resorption sites/total animals (9-month-old CF1 mice; E12, quotient): (0.62)
Total pregnancy (9-month-old CF1 mice; number of mice, 1% putrescine in drinking water): 24
Plug observed (9-month-old CF1 mice; number of mice, 1% putrescine in drinking water 5-8 days up to plug): 25
Plug pregnancy (9-month-old CF1 mice; percent of plugged mice): (92.00%)
Unplug pregnancy (9-month-old CF1 mice; percent of unplugged mice): (25.00%)
Plug pregnancy (9-month-old CF1 mice; pregnant/plugged mice): 23/25
Unplug pregnancy (9-month-old CF1 mice; pregnant/unplugged mice): 1/4
concentration at 20 min (in vivo; sc): 42 µM
concentration at 40 min (in vivo; subcutaneous): 16 µM
concentration at 60 min (in vivo; subcutaneous): 8 µM
fetal toxicity [3]: fetal toxicity was found
